Laboratory results reported in patent publication US20260335279A1, “METHODS OF TREATING ISCHEMIA-REPERFUSION INJURIES” (University of Cincinnati, priority 2022, published 2026).

How the values were obtained:
NOX4 = conditions: cited from earlier work
[1] = system: myocardial ischemia-reperfusion injury in mice; experiment: Infarct size evaluation upon Evans Blue/TTC staining after myocardial I/R; format: in vivo, mouse (C57BL/6)
Procedure: (§1) The myocardial ischemia/reperfusion surgical protocol was applied as follows. Mice were anesthetized with 2% isoflurane inhalation until anesthesia was achieved. The animals' body temperature was maintained at 37 °C throughout the surgical procedure using a heating pad. A tracheal tube was placed via tracheal intubation and the respiration rate was set at 150 strokes/min with a tidal volume of 200 μL, using Minivent ventilator for mice (Model 845, Harvard Apparatus). A 1.2 cm incision was made over the left chest. After retraction of the pectoral major and minor muscles, the fourth intercostal space was exposed. […] The left anterior descending coronary artery (LAD) was then located, sutured, and ligated at a site 3-4 mm distal to the origin of the artery under the left atrium using a 6-0 silk suture. The heart was allowed to stabilize for 15 min and right after, ischemia was induced by tightening the suture against a small piece of polyethylene tube. At the end of the 30-minute ischemia period, the ligature was released for the induction of reperfusion, and then the manual evacuation of air and closure of muscle and skin were performed. The mouse was then monitored during the recovery period, which was generally completed within 3 to 5 minutes. Sustain-released buprenorphine (BupSR, 0.5 mg/kg body weight) was provided by subcutaneous injection. Mice were then left to recover until the end of the reperfusion (2 hours, 12 hours, 24 hours, or 4 weeks). The sham group underwent the same surgical procedure except that the LAD was not occluded.
Double staining of the heart with Evans Blue dye and Triphenyl-Tetrazolium Chloride (TTC) solution was employed for infarct size measurements. Mice were anesthetized upon 3% isoflurane inhalation. The thorax was cut and opened, and hearts were gently excised. Then, the aorta was cannulated and perfused with 5 mL of normal saline. The suture was re-tightened and Evans Blue solution (2.5% in WFI) was slowly infused through the aorta, to differentiate the ischemic part of the myocardium from the non-occluded, normally perfused area. The hearts were sliced into 1-2 mm sections immediately following. The heart slices were incubated with TTC solution (1% in PBS, pH=7.4) at 37 °C for 20 min. In this way, the necrotic area is delimited as a white area, while the viable tissue is stained red. […] The overall size of each slice (All/A), the area-at-risk (R), and the infarct area (I) were determined in a blinded manner for each slice using ImageJ software, and the percentages of Area at Risk (R/A) % and I/R % were calculated. […]
Administration of these two compounds was performed 5 minutes before the reopening of the coronary artery and infarct size was assessed upon 30 minutes of ischemia followed by 24 hours of reperfusion therapy.

[2] = system: reactive oxygen species in myocardium; experiment: DHE staining of myocardium (superoxide detection, oxidative stress) after I/R; format: in vivo, mouse (C57BL/6); conditions: 2 h reperfusion; apocynin 5 mg/kg/12 h or GLX351322 3.8 mg/kg/12 h, intraperitoneal, at early reperfusion
Procedure: as §1, with “Sustain-released buprenorphine (BupSR, 0.5 mg/kg body weight) was provided by subcutaneous injection. Mice were then left to recover until the end of the reperfusion (2 hours, 12 hours, 24 hours, or 4 weeks). The sham group underwent the same surgical procedure except that the LAD was not occluded.” left out
Live myocardium was isolated from mice at the time of euthanasia and stained with 20 μM dihydroethidium (DHE) for 30 min at room temperature. […] Individual nuclei were measured within each visual field using ImageJ software, and visual fields were averaged to measure mean fluorescence intensity for each mouse.
In order to unravel the mechanisms of KLF5-mediated cardiotoxicity, oxidative stress levels were evaluated at early reperfusion. […] Given the fact that inflammation and diapedesis of immune cells are important hallmarks of the post-ischemia-reperfusion response, the mRNA levels of IL-1α, IL-1β, IL-6, IL-10, and TNFα in the ischemic myocardium upon ML264 treatment were evaluated at 2 hours of reperfusion (FIGS. 51-5M) and 24 hours of reperfusion (FIGS. 5N-5Q). […]

KLF5 [3] = conditions: cited from earlier work
KLF5 promoter = conditions: colorectal cancer cell lines; Bialkowska 2011; cited from earlier work
KLF5 [4] = conditions: colorectal cancer cell lines; Bialkowska 2011; cited from earlier work
[5] = apocynin 5 mg/kg/12 h or GLX351322 3.8 mg/kg/12 h, intraperitoneal, at early reperfusion, vs vehicle

With CCOC(=O)c1c(NC(=O)CN2CCN(C(=O)c3ccco3)CC2)sc2c1CCC2 [GLX-351322] as the molecule, how does the “hydrogen peroxide production from NOX4-overexpressing cells” value (NOX4) read?
The value was “inhibits”.

And the infarct size [1, 5]?
Its infarct size is “significant reduction”.

And the “oxidative stress (DHE staining)” value [2]?
The value was “significant suppression”.

Which “inhibition of KLF5” value (KLF5 [3]) does the source give for CC(C)(C)c1cc(/C=C(\C#N)C(N)=S)cc(C(C)(C)C)c1O [AG879] here?
Its value is “inhibit”.

Which results are given for CC(C)(C)c1cc(C=C(C#N)C#N)cc(C(C)(C)C)c1O [AG17]?
KLF5 promoter activity (KLF5 promoter): reduce; KLF5 protein level (KLF5 [4]): reduce

What does the source list for COc1cc(C(C)=O)ccc1O [apocynin, acetovanillone]?
infarct size [1, 5]: significant reduction; oxidative stress (DHE staining) [2]: significant suppression

With CC(C)(C)c1ccc(S(=O)(=O)NCc2ccc(C(=O)Nc3cccnc3)cc2)cc1 [STF-31] as the molecule, how does the infarct size ([1]; GLUT inhibitors 5 min before reopening of coronary artery, 30 min ischemia, 24 h reperfusion) read?
Its infarct size is “not by STF-31 treatment”.
